This is an account of results in patent US20240246977A1, “DEGRADATION OF BRUTON'S TYROSINE KINASE (BTK) BY CONJUGATION OF BTK INHIBITORS WITH E3 LIGASE LIGAND AND METHOD OF USE” (BeiGene Switzerland GmbH, priority 2021, published 2024).

The target in one assay is BTK (Homo sapiens, UniProt Q06187). Kind of assay: BTK cell degradation in TMD-8 cells, HTRF assay. It counts as cell-based. The arrangement: endogenous in cells; host or cells: TMD-8 cells. To be noted: 6 h treatment, IC50 (DC50) of BTK degradation. In short, it runs like this:
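BTK levels read by HTRF in lysates of TMD-8 cells exposed to compounds for 6 h, eight concentrations at 6-fold steps in 0.2% DMSO. Percent degradation versus DMSO and low controls was fitted with a four-parameter equation to give DC50; Dmax is maximal degradation.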

For the next assay, the system named is HEK-293 cells. The experiment in a line: HEK-293 cytotoxicity detection (CellTiter-Glo). To be noted: Homo sapiens, 72 h, 72 h incubation, CellTiter-Glo luminescence, read-out: HEK293. Type of assay: cell-based. Summed up: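 HEK-293 cells exposed 72 h to 8 compounds doses (4-fold dilutions, top stock 5 mM at 500×) in 0.2% DMSO. Viability by CellTiter-Glo luminescence; inhibition normalised to DMSO high control and low control, IC50 from four-parameter curve fit.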

SMILES strings stand for the structures. Where only a bound is given, the exact number is not on record here.

Chain of BTK (Q06187 whole entry): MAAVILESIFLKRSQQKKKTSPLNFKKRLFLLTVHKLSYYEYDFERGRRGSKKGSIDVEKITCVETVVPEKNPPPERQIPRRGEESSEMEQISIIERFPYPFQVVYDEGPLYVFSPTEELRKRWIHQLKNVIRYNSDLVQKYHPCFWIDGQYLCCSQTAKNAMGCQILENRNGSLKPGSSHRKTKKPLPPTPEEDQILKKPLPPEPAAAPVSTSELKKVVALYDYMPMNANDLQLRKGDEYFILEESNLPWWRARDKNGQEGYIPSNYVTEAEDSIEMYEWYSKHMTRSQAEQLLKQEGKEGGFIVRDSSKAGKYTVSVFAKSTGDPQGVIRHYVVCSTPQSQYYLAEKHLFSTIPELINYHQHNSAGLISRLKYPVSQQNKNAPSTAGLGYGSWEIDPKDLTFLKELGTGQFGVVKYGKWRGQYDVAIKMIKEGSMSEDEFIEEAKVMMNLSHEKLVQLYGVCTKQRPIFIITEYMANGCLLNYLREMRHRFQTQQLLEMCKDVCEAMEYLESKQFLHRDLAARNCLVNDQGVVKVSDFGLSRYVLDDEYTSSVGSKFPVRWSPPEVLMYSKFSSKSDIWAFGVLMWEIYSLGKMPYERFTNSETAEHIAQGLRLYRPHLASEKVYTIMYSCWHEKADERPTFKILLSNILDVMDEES

The molecule `Cc1cccc(NC(=O)c2ccc(-c3nn4c(c3C(N)=O)Nc3ccc(N5CCN(C6CC(c7ccc(N8CCC(=O)NC8=O)cc7)C6)CC5)cc3CC4)c(F)c2C)n1` (stereo not drawn) [Example B64, 7-(4-(3-(4-(2,4-dioxotetrahydropyrimidin-1(2H)-yl)phenyl)cyclobutyl)piperazin-1-yl)-2-(2-fluoro-3-methyl-4-((6-methylpyridin-2-yl)carbamoyl)phenyl)-9,10-dihydro-4H-benzo[d]pyrazolo[1,5-a][1,3]diazepine-3-carboxamide] had a DC50 on BTK of 4.85 nM. Besides, the IC50 in the assay on HEK-293 cells was over 10 µM.
Taken in the same sequence, the figures for `Cc1cccc(NC(=O)c2ccc(-c3nn4c(c3C(N)=O)Nc3ccc(N5CCN(C6CN(C7CN(c8ccc(C9CCC(=O)NC9=O)cc8)C7)C6)CC5)cc3CC4)c(F)c2C)n1` (stereo not drawn) [Example B65, 7-(4-(1′-(4-(2,6-dioxopiperidin-3-yl)phenyl)-[1,3′-biazetidin]-3-yl)piperazin-1-yl)-2-(2-fluoro-3-methyl-4-((6-methylpyridin-2-yl)carbamoyl)phenyl)-9,10-dihydro-4H-benzo[d]pyrazol[1,5-a][1,3]diazepine-carboxamide] were 1.78 nM and 0.0988 µM.
The matching figures for `Cc1cccc(NC(=O)c2ccc(-c3nn4c(c3C(N)=O)Nc3ccc(N5CCN(C6CN(c7ccc(N8CCC(=O)NC8=O)cc7)C6)CC5)cc3CC4)c(F)c2C)n1` [Example B66, 7-(4-(1-(4-(2,4-dioxotetrahydropyrimidin-1(2H)-yl)phenyl)azetidin-3-yl)piperazin-1-yl)-2-(2-fluoro-3-methyl-4-((6-methylpyridin-2-yl)carbamoyl)phenyl)-9,10-dihydro-4H-benzo[d]pyrazolo[1,5-a][1,3]diazepine-3-carboxamide]: 1.35 nM and over 10 µM.
On to `Cc1cccc(NC(=O)c2ccc(-c3nn4c(c3C(N)=O)Nc3ccc(N5CCN(C6CC(c7ccc([C@H]8CCC(=O)NC8=O)cc7)C6)CC5)cc3CC4)c(F)c2C)n1` (stereo partly drawn) [Example B67, (R)-7-(4-(3-(4-(2,6-dioxopiperidin-3-yl)phenyl)cyclobutyl)piperazin-1-yl)-2-(2-fluoro-3-methyl-4-((6-methylpyridin-2-yl)carbamoyl)phenyl)-9,10-dihydro-4H-benzo[d]pyrazolo[1,5-a][1,3]diazepine-3-carboxamide], for which, at BTK, the half-maximal degradation concentration (DC50) is 0.622 nM. For the same molecule, the IC50 in the assay with HEK-293 cells is 0.0968 µM.
Taken in the same sequence, the figures for `Cc1cccc(NC(=O)c2ccc(-c3nn4c(c3C(N)=O)Nc3ccc(N5CCN(C6CC(c7ccc([C@@H]8CCC(=O)NC8=O)cc7)C6)CC5)cc3CC4)c(F)c2C)n1` (stereo partly drawn) [Example B68, (S)-7-(4-(3-(4-(2,6-dioxopiperidin-3-yl)phenyl)cyclobutyl)piperazin-1-yl)-2-(2-fluoro-3-methyl-4-((6-methylpyridin-2-yl)carbamoyl)phenyl)-9,10-dihydro-4H-benzo[d]pyrazolo[1,5-a][1,3]diazepine-3-carboxamide] were 2.56 nM and 0.105 µM.
The matching figures for `Cc1cccc(NC(=O)c2ccc(-c3nn4c(c3C(N)=O)Nc3ccc(N5CCN(C6CC(c7ccc(N[C@@H]8CCC(=O)NC8=O)cc7)C6)CC5)cc3CC4)c(F)c2C)n1` (stereo partly drawn) [Example B71, (R)-7-(4-(3-(4-((2,6-dioxopiperidin-3-yl)amino)phenyl)cyclobutyl)piperazin-1-yl)-2-(2-fluoro-3-methyl-4-((6-methylpyridin-2-yl)carbamoyl)phenyl)-9,10-dihydro-4H-benzo[d]pyrazolo[1,5-a][1,3]diazepine-3-carboxamide]: 7.45 nM and over 10 µM.
The matching figures for `Cc1cccc(NC(=O)c2ccc(-c3nn4c(c3C(N)=O)Nc3ccc(N5CCN(C6CC(c7ccc(N[C@H]8CCC(=O)NC8=O)cc7)C6)CC5)cc3CC4)c(F)c2C)n1` (stereo partly drawn) [Example B72, (S)-7-(4-(3-(4-((2,6-dioxopiperidin-3-yl)amino)phenyl)cyclobutyl)piperazin-1-yl)-2-(2-fluoro-3-methyl-4-((6-methylpyridin-2-yl)carbamoyl)phenyl)-9,10-dihydro-4H-benzo[d]pyrazolo[1,5-a][1,3]diazepine-3-carboxamide]: 6.23 nM and over 10 µM.
Regarding `Cc1cccc(NC(=O)c2ccc(-c3nn4c(c3C(N)=O)Nc3ccc(N5CCN(C(=O)C6CCN(c7ccc(N8CCC(=O)NC8=O)cc7)CC6)CC5)cc3CC4)c(F)c2C)n1` [Example B73, 7-(4-(1-(4-(2,4-dioxotetrahydropyrimidin-1(2H)-yl)phenyl)piperidine-4-carbonyl)piperazin-1-yl)-2-(2-fluoro-3-methyl-4-((6-methylpyridin-2-yl)carbamoyl)phenyl)-9,10-dihydro-4H-benzo[d]pyrazolo[1,5-a][1,3]diazepine-3-carboxamide], the DC50 on BTK stood at 2.18 nM. In addition, the IC50 in the assay on HEK-293 cells was over 10 µM.
The matching figures for `Cc1cccc(NC(=O)c2ccc(-c3nn4c(c3C(N)=O)Nc3ccc(N5CCN(C[C@H]6CCN(c7ccc(N8CCC(=O)NC8=O)cc7)C6)CC5)cc3CC4)c(F)c2C)n1` [Example B74, (R)-7-(4-((1-(4-(2,4-dioxotetrahydropyrimidin-1(2H)-yl)phenyl)pyrrolidin-3-yl)methyl)piperazin-1-yl)-2-(2-fluoro-3-methyl-4-((6-methylpyridin-2-yl)carbamoyl)phenyl)-9,10-dihydro-4H-benzo[d]pyrazolo[1,5-a][1,3]diazepine-3-carboxamide]: 7.15 nM and over 10 µM.
Take `Cc1cccc(NC(=O)c2ccc(-c3nn4c(c3C(N)=O)Nc3ccc(N5CCN(C(=O)Cc6cccc(N7CCC(=O)NC7=O)c6)CC5)cc3CC4)c(F)c2C)n1` [Example B75, 7-(4-(2-(3-(2,4-dioxotetrahydropyrimidin-1(2H)-yl)phenyl)acetyl)piperazin-1-yl)-2-(2-fluoro-3-methyl-4-((6-methylpyridin-2-yl)carbamoyl)phenyl)-9,10-dihydro-4H-benzo[d]pyrazolo[1,5-a][1,3]diazepine-3-carboxamide]: it took 30.1 nM to reach half-maximal degradation on BTK (DC50). Also, the IC50 in the assay on HEK-293 cells was over 10 µM.
As to `Cc1cccc(NC(=O)c2ccc(-c3nn4c(c3C(N)=O)Nc3ccc(N5CCN(CC6CCN(c7ccc(N8CCC(=O)N(CC(=O)OC(C)(C)C)C8=O)cc7)CC6)CC5)cc3CC4)c(F)c2C)n1` [Example B76, tert-butyl 2-(3-(4-(4-((4-(3-carbamoyl-2-(2-fluoro-3-methyl-4-((6-methylpyridin-2-yl)carbamoyl)phenyl)-9,10-dihydro-4H-benzo[d]pyrazolo[1,5-a][1,3]diazepin-7-yl)piperazin-1-yl)methyl)piperidin-1-yl)phenyl)-2,6-dioxotetrahydropyrimidin-1(2H)-yl)acetate], the DC50 at BTK is over 2000 nM. Moreover, in the assay on HEK-293 cells, the IC50 is over 10 µM.
`Cc1cccc(N(CC(=O)OC(C)(C)C)C(=O)c2ccc(-c3nn4c(c3C(N)=O)Nc3ccc(N5CCN(CC6CCN(c7ccc(N8CCC(=O)N(CC(=O)OC(C)(C)C)C8=O)cc7)CC6)CC5)cc3CC4)c(F)c2C)n1` [Example B77, tert-butyl 2-(3-(4-(4-((4-(2-(4-((2-(tert-butoxy)-2-oxoethyl)(6-methylpyridin-2-yl)carbamoyl)-2-fluoro-3-methylphenyl)-3-carbamoyl-9,10-dihydro-4H-benzo[d]pyrazolo[1,5-a][1,3]diazepin-7-yl)piperazin-1-yl)methyl)piperidin-1-yl)phenyl)-2,6-dioxotetrahydropyrimidin-1(2H)-yl)acetate] had a half-maximal degradation concentration (DC50) at BTK of over 2000 nM. Further, the IC50 with HEK-293 cells is 0.0383 µM.
Taken in the same sequence, the figures for `Cc1cccc(NC(=O)c2ccc(-c3nn4c(c3C(N)=O)Nc3ccc(N5CCN(CC6CCN(c7ccc(N8CCC(=O)N(COC(=O)C(C)(C)C)C8=O)cc7)CC6)CC5)cc3CC4)c(F)c2C)n1` [Example B78, (3-(4-(4-((4-(3-carbamoyl-2-(2-fluoro-3-methyl-4-((6-methylpyridin-2-yl)carbamoyl)phenyl)-9,10-dihydro-4H-benzo[d]pyrazolo[1,5-a][1,3]diazepin-7-yl)piperazin-1-yl)methyl)piperidin-1-yl)phenyl)-2,6-dioxotetrahydropyrimidin-1(2H)-yl)methyl pivalate] were 6.27 nM and over 10 µM.
In the case of `Cc1cccc(N(COC(=O)C(C)(C)C)C(=O)c2ccc(-c3nn4c(c3C(N)=O)Nc3ccc(N5CCN(CC6CCN(c7ccc(N8CCC(=O)N(COC(=O)C(C)(C)C)C8=O)cc7)CC6)CC5)cc3CC4)c(F)c2C)n1` [Example B79, (3-(4-(4-((4-(3-carbamoyl-2-(2-fluoro-3-methyl-4-((6-methylpyridin-2-yl)((pivaloyloxy)methyl)carbamoyl)phenyl)-9,10-dihydro-4H-benzo[d]pyrazolo[1,5-a][1,3]diazepin-7-yl)piperazin-1-yl)methyl)piperidin-1-yl)phenyl)-2,6-dioxotetrahydropyrimidin-1(2H)-yl)methyl pivalate], the DC50 at BTK was 3.68 nM. The IC50 in the assay with HEK-293 cells was over 10 µM.
The matching figures for `Cc1cccc(NC(=O)c2ccc(-c3nn4c(c3C(N)=O)Nc3ccc(N5CCN(CC6CCN(c7ccc(N8CCC(=O)N(CC(=O)OCc9ccccc9)C8=O)cc7)CC6)CC5)cc3CC4)c(F)c2C)n1` [Example B80, benzyl 2-(3-(4-(4-((4-(3-carbamoyl-2-(2-fluoro-3-methyl-4-((6-methylpyridin-2-yl)carbamoyl)phenyl)-9,10-dihydro-4H-benzo[d]pyrazolo[1,5-a][1,3]diazepin-7-yl)piperazin-1-yl)methyl)piperidin-1-yl)phenyl)-2,6-dioxotetrahydropyrimidin-1(2H)-yl)acetate]: over 2000 nM and over 10 µM.
